Measured values reported in article PMC5845353, “The selective cathepsin K inhibitor MIV-711 attenuates joint pathology in experimental animal models of osteoarthritis” (Journal of Translational Medicine, 2018).

How the values were obtained:
[1] = test system: dogs subjected to partial medial meniscectomy; assay: Dog partial medial meniscectomy study, tibial cartilage lesion area by imaging analysis of photographs; type: in vivo; conditions: 30 µmol/kg
Method: Dogs subjected to partial medial meniscectomy received either 30 µmol/kg MIV-711 (synthesized by Medivir and given as a suspension in 1% Methocel A4C; n = 15) or vehicle (1% Methocel A4C; n = 15) by orogastric gavage once daily in the morning. […] Dosing started the day before surgery and lasted through Day 28, the day before necropsy. Each dog was fasted for at least 12 h before dosing and food were returned approximately 4 h following test article administration.
All animals were humanely euthanized on Day 29 to collect specimens for pathology. Following sedation with acepromazine, euthanasia was performed via injection of a pentobarbital-based euthanasia solution (≥ 88 mg/kg pentobarbital). At study termination, the left (operated) knee was opened, disarticulated and the lesions on the medial tibia and femur measured, described and photographed. The observers were blinded to the treatment. Photographs were used (with or without India Ink lesion enhancement) to determine % area of lesions on each medial tibial plateau. Lesions were classified as more severe or less severe depending on the intensity of India ink staining or perception of depth and areas for each calculated. Gross cartilage lesions were measured (length × width) and described as superficial, moderate, or deep. Gross subjective cartilage degeneration scores were assigned for the medial and lateral tibial and femoral compartments as follows based on lesion measurements (see above): 0: normal, 1: superficial degeneration up to 10 mm^2, 2: superficial degeneration greater than 10 mm^2, 3: moderate depth degeneration up to 15 mm^2, 4: moderate depth degeneration greater than 15 mm^2. Subjective scores for the various regions were then used to generate an overall index of subjective cartilage degeneration for each region for each animal. Actual measurements of cartilage lesions were used to derive a calculated set of data points based on length × width × depth score (with depth score of 1 = superficial, 2 = medium, and 3 = deep, based on gross description). Percent of more or less severe tibial lesion area was determined from photographs taken at necropsy.

[2] = test system: dogs subjected to partial medial meniscectomy; assay: Dog partial medial meniscectomy study, osteophyte measurement and grades; type: in vivo
Method: Osteophytes for each compartment were measured (basal endochondral ossification to surface of cartilage cap) and severity grades assigned according to the following: […]

[3] = test system: plasma proteins; assay: Fraction bound to plasma proteins, dog; type: in vitro ADME

Question: With `C#C[C@@H]1CN(C(=O)[C@H](CC(C)C)NC(=O)c2ccc(-c3nc(N4CCN(C)CC4)sc3F)cc2)[C@@H]2C(=O)CO[C@H]12` [MIV-711] as the compound, how does the “Total lesion area, reduction vs vehicle (printed in Fig. 7)” value ([1]; dog, left tibia plateau) read?
Answer: Its value is 26%.

Question: What about the “proportion of tibial cartilage affected by lesions (lesioned area)” value ([1]; dog, left tibia plateau, vehicle 21.0% ± 2.6) of the same compound?
Answer: The value was 15.5%.

Question: And the “area of severe lesions, lower than vehicle group” value ([1]; dog, p = 0.08)?
Answer: The value was 80%.

Question: What about the “dogs with severe tibial cartilage lesions” value ([1]; dog, vehicle 6/15) of the same compound?
Answer: Its value is 3/15.

Question: What about the “area of severe tibial cartilage lesions” value ([1]; three dogs with severe lesions, vehicle 10 ± 4%) of the same compound?
Answer: The value was 2 ± 1%.

Question: What about the “Osteophyte Score” value ([2]; MIV-711 group mean) of the same compound?
Answer: Its value is 0.00.

Question: And the “Osteophyte Measure” value ([2]; individual dogs of MIV-711 group)?
Answer: The value was 0 µm.

Question: What about the “Osteophyte Score” value ([2]; individual dogs of MIV-711 group, mean of 3 sections) of the same compound?
Answer: The value was 0.00.

Question: What about the “fraction bound to plasma proteins” value [3] of the same compound?
Answer: The value was 90%.
